Data as given in patent US10624992B2, “Human airway stem cells in lung epithelial engineering” (The General Hospital Corporation, priority 2016, dated 2020).

What was measured:
[1] = system: BESCs on acellular rat lung scaffolds; test: Rat lung scaffold recellularization and ex vivo culture with Notch inhibitors; type: cell-based, human; details: DAPT 50 nM in vitro 5 days, then 5 days ex vivo on rat lung scaffold without inhibitors
Method: Primary lung epithelial cells (passage 3) were harvested from 2-D culture, counted, and re-introduced to the scaffold airways in solution (20 ml) by gravity. Continuous media perfusion through the pulmonary artery was maintained at 4 ml/min by peristaltic pump and changed daily.
RNA was isolated using the RNEasy Plus (Qiagen). cDNA was transcribed using the Superscript III kit (Invitrogen). Quantitative gene expression was analyzed using Taqman probes and the OneStep Plus system (Applied Biosystems). Expression was normalized to β-Actin expression and relative to cadaveric lung tissue control samples.
Primary Antibodies (1:100): p63 (Santa Cruz, sc-25268), Krt5 (Abcam, ab24647), E-cadherin (BD, 610181), Surfactant Protein-B (Millipore, AB3430), pro-Surfactant Protein-C (Abcam, ab3786), Aquaporin-5 (Abcam, ab92320), Acetylated α-Tubulin (Abcam, ab24610), α2β1 integrin (Abcam, ab24697), α3β1 integrin (Abcam, ab24696), and CD31 (Daki, M082301-2). Secondary antibodies (1:400): Alexafluor 488 and 594 (Life Technologies).

[2] = system: primary epithelial basal cells (BESCs); test: Notch inhibitor treatment of primary epithelial basal cells in vitro (qPCR, immunofluorescence); type: cell-based, human; details: 5 days in vitro, compared to No Treatment
Method: (§1) Donor lung peripheral tissue (1-inch cubed) was washed in αMEM and then chopped into ˜¼ inch pieces with scissors and digested in 0.1 mg/ml DNAse (Sigma) and 1.4 mg/ml Pronase (Roche, 11459643001) for 24 hours/4° C. (52). Digested tissue was plated onto uncoated culture flasks in SAGM for 30 minutes/37° C., then non-adherent cells transferred and adhered to human Collagen-IV (Sigma-Aldrich C7521)-coated flasks. Epithelial cells were maintained in SAGM (Lonza, CC-3118) and passaged at 80% confluent (approximately 3-5 days/passage). For cells treated with γ-secretase inhibitors (1) 3-Isobutyl-1-methylxanthine (100 μg/ml IBMX, Sigma-Aldrich, 15879) and (2) N-[(3,5-Difluorophenyl)acetyl]-L-alanyl-2-phenyl]glycine-1,1-dimethylethyl ester (50 μg/ml DAPT, Selleck Chemicals, S2215), media was changed daily. Primary endothelial cells were isolated from the large vessels of donor lungs using the same digestion protocol. The endothelial population was sorted for CD31^+ purity by flow cytometry, and maintained and expanded on Gelatin coated flasks in EGM2 (Lonza, CC-3162) until utilized for human lung recellularization (See FIGS. 7A-B). RNA was isolated using the RNEasy Plus (Qiagen). cDNA was transcribed using the Superscript III kit (Invitrogen). Quantitative gene expression was analyzed using Taqman probes and the OneStep Plus system (Applied Biosystems). […]

[3] = system: primary human lung epithelial basal cells; test: Effect of ROCK inhibitor on cell phenotype and senescence during cell isolation and passage; type: cell-based
Method: as §1, with “FIGS. 8A-C: Effect of ROCK Inhibitor on Cell Phenotype and Senescence. […] Donor” for “Donor”, “RNA was isolated using the RNEasy Plus (Qiagen). cDNA was transcribed using the Superscript III kit (Invitrogen).” left out

[4] = system: BESCs on decellularized rat lung scaffolds; test: Ex vivo rat lung recellularization on scaffolds pre-coated with TN-C and/or FBN-2; type: cell-based, human; details: Day 3 and 7
Method: Decellularized lung scaffolds were pre-coated with (A) PBS control, (B) TN-C, 10 μg/ml, (C) FBN-2, (10 μg/ml each of N- and C-terminal fragment of FBN-2), or (D) TN-C+FBN-2 (10 μg/ml each of TN-C and of N- and C-terminal fragment of FBN-2), by delivery through the trachea. Solution was recycled to the trachea for 90 min at 37° C. A total of 20×10^6 primary lung epithelial cells (passage 3) were then delivered to the scaffold airways in 20 ml of SAGM by gravity. Constant media perfusion of SAGM through the pulmonary artery was maintained at 4 ml/min (pressure 15-20 mmHg) and changed daily. […]
mRNA was isolated (Qiagen RNeasy Plus Kit) and transcribed to cDNA (Invitrogen SuperScript III). Gene expression was analyzed using Taqman probes and the OneStep Plus system (Applied Biosystems). Each biological sample was analyzed in experimental replicate (n=2 repeated wells of the qPCR reaction) and the Ct value of each replicate was averaged and handed as n=1 unique biologic sample. Expression for each sample was normalized to β-Actin (ACTA1) gene expression (ΔCt) and relative to cadaveric peripheral lung tissue control samples (ΔΔCt), with fold change calculated by 2-ΔΔCt (Livak and Schmittgen, Methods. 2001; 25(4):402-8). A total of n=3 unique biological samples were analyzed for each reported experiment. […]

BESCs [5] = test: In vitro culture of BESCs on Collagen IV plates supplemented with TN-C and/or FBN-2; type: cell-based, human; details: 7 d culture, compared to uncoated or Collagen IV coated wells
Method: 24-well plates were pre-coated with human Collagen IV (10 μg/ml) Sigma-Aldrich C7521) for 2 h at 37° C. After removal of the collagen solution, TN-C (10 μg/ml, R&D 3358-TC-050) or the recombinant N-terminal half (FBN-2-N) or C-terminal half (FBN-2-C) of human FBN-2 (10 μg/ml) (Lin et al., The Journal of biological chemistry. 2002; 277(52):50795-804) were then added to select wells, and incubated for 2 h at 37° C. A total of 1×10^5 BESC were subsequently plated to each well and cultured for 7 d in SAGM.
mRNA was isolated (Qiagen RNeasy Plus Kit) and transcribed to cDNA (Invitrogen SuperScript III). Gene expression was analyzed using Taqman probes and the OneStep Plus system (Applied Biosystems). Each biological sample was analyzed in experimental replicate (n=2 repeated wells of the qPCR reaction) and the Ct value of each replicate was averaged and handed as n=1 unique biologic sample. Expression for each sample was normalized to β-Actin (ACTA1) gene expression (ΔCt) and relative to cadaveric peripheral lung tissue control samples (ΔΔCt), with fold change calculated by 2-ΔΔCt (Livak and Schmittgen, Methods. 2001; 25(4):402-8). A total of n=3 unique biological samples were analyzed for each reported experiment.
After de-paraffinization and rehydration, 5 μm tissue section were permeabilized with 0.1% Triton X-100 for intracellular antigens, when appropriate. […]

BESCs [6] = test: In vitro migration assay on protein coatings; type: cell-based, human; details: over 3 h, compared to Collagen IV coating alone, p<0.001; mixture of N- and C-terminal halves of FBN-2
Method: For migration assay, after coating as above, a small inset (MIDI) was added to the wells prior to cell seeding. A total of 1×10^4 cells were seeded within the insert and incubated for 12 h, before the insert was removed. Bright-field images were taken every 30 min for 180 min to track cell migration. Images were analyzed with ImageJ software (Schneider et al., Nature methods. 2012; 9(7):671-5) to quantify the change in cell-free area.

Compound: C[C@H](NC(=O)Cc1cc(F)cc(F)c1)C(=O)NC(C(=O)OC(C)(C)C)c1ccccc1 (stereo partly drawn) [DAPT]
- distal type2-like fate after in vitro pre-treatment and inhibitor withdrawal [1]: maintained a distal type2-like fate
- SP-B and SP-C gene expression (type II pneumocyte markers) [2]: ineffective alone

Compound: CC(C)Cn1c(=O)n(C)c(=O)c2[nH]cnc21 [IBMX, 3-Isobutyl-1-methylxanthine]
- SP-B and SP-C gene expression (type II pneumocyte markers) [2]: ineffective alone

Compound: C[C@@H](N)[C@H]1CC[C@H](C(=O)Nc2ccncc2)CC1 [Y-27632]
- basal cell population, proliferation (Ki67, PCNA) and senescence (CDKN2A) ([3]; during cell isolation and passage): did not enhance the basal cell population, or alter proliferation (Ki67, PCNA) or senescence
- gene expression, treated vs untreated ([3]; passage 1 and passage 4, n=3 cell lines, t-test): No significant differences

Compound: TN-C: Tenascin-C glycoprotein (R&D 3358-TC-050), used as coating at 10 μg/ml
- Ki67 expression of Krt5+ BESCs (immunofluorescence) [4]: significant increase in proliferation
- proliferation (gene expression) (BESCs [5]): significantly greater proliferation
- senescence (gene expression) (BESCs [5]): less senescence
- BESC migration rate (change in cell-free area) (BESCs [6]): Significantly higher rates of BESC migration
